In the assay the test system is NSCs from adult Tg2576 mice. Kind of assay: Immunofluorescence staining of NSCs from adult Tg2576 mice. In kind it is cell-based. Conditions: 100 nM, 48 hrs. Here is the method: Cell culture: SH-SY5Y neuroblastoma cells were cultured at 37° C., 5% CO2., in Dulbecco's Modified Eagle Medium/Ham's F-12 nutrient mixture (DMEM/F12) (Invitrogen, Carlsbad, Calif.) supplemented with 10% heat-inactivated fetal bovine serum containing 100 units/ml penicillin, 100 μg/ml streptomycin. Primary cortical neuron cultures were derived from embryo day 18 (E18) from ICR mice. The dissociated cells were plated on glass cover slips coated with poly-D-lysine in Neurobasal medium supplemented with 2% B27 (Invitrogen), 100 units/ml penicillin, 100 μg/ml streptomycin, and 2 mM L-glutamine. Primary NSCs from normal mice were isolated from the subventricular zone (SVZ) of 8 week-old C57BL/6 mice brain. NSCs from adult Tg2576 mice brain were obtained from Seoul National University Hospital. The neurospheres were cultured as previously described (M. Y. Kim, B. S. Moon, K. Y. Choi, Isolation and maintenance of cortical neural progenitor cells in vitro. Methods Mol Biol 1018, 3-10 (2013)). For neurosphere culture from normal mice, the cells were dissociated from brain tissue and grown in N2 medium in 25 cm^2 flasks (SPL, Gyeonggi-do, Korea) in suspension. bFGF (20 ng/ml, Peprotech, Princeton, N.J.) and human EGF (20 ng/ml, Peprotech) were added to the media to allow the cells to form neurospheres. For analyses, NSCs were cultured as a monolayer. For differentiation of NSCs, the neurospheres were dissociated with TrypLE (Invitrogen), plated on 15 μg/ml poly-L-ornithine-(Sigma-Aldrich, St. Louis, Mo.) and 10 μg/ml fibronectin (Gibco)-coated plates, and cultured in bFGF- and EGF-depleted N2 medium for 2 days. For neurosphere culture from Tg2576 mice, the cells were grown in DMEM/F12 supplemented with B27 supplements in 75 cm^2 flasks (SPL) in suspension. bFGF (10 ng/ml) and human EGF (10 ng/ml) were added to the media to allow the cells to form neurospheres. For inducing differentiation and AP expression, the neurospheres were dissociated with pipetting, plated on 15 μg/ml poly-L-ornithine- and 10 μg/ml fibronectin (Gibco)-coated plates, and cultured in bFGF- and EGF-depleted medium for 2 days.
Immunocytochemistry: SH-SY5Y cells or adult NSCs were placed on glass coverslips coated with poly-L-ornithine/laminin or poly-D-lysine, respectively. After washing three times with PBS for 5 min, cells were fixed in 10% formalin for 15 min at room temperature. The cells were then washed with PBS and permeabilized in 0.1% Triton X-100 for 2 min. Cells were placed in blocking solution containing 5% BSA in PBS for 1 h at room temperature and incubated with anti-active caspase 3 (cell signaling), anti-Aβ (thermo), anti-Tau (Cell signaling), anti-LC3 (Cell signaling) and anti-LAMP1 (Abcam) in blocking buffer for 2 h at room temperature. After washing, cells were incubated with goat anti-rabbit antibody conjugated with Alexa Fluor 488 (Thermo) and/or goat anti-rat antibody conjugated with Alexa Fluor 555 (Thermo) overnight. After washing, cells were incubated with 4′,6-diamidino-2-phenylindole (DAPI) for 5 min. Coverslips were mounted using mounting medium (Biomeda, Foster City, Calif.) and visualized by confocal microscopy using a LSM700 microscope (Carl Zeiss). The percentage of coefficient was calculated using the pixels above threshold of fluorescence intensities. […] The fluorescence intensity was observed under a confocal microscopy using a LSM700 microscope (Carl Zeiss). The number of LysoTracker puncta was analyzed with Icy software.

As for `CC(=O)Nc1cccc(-n2c(=O)n(C3CC3)c(=O)c3c(Nc4ccc(I)cc4F)n(C)c(=O)c(C)c32)c1` [trametinib], the “active caspase 3” value is reported as “reduced active caspase 3”; the “autophagosome-lysosome fusions in axon-like elongated elements and soma” value is “markedly increased”; the “cells with bipolar morphology with elongated neurites” value was “marked increase”; the “differentiation of NSCs into neuron-like cells” value was “strongly induced differentiation of NSCs into neuron-like cells”. Moreover, the “expression of autophagosomes and lysosomes (LC3 and LAMP1 staining)” value is recorded as “markedly increased”.

The record behind these values is patent publication US20220265657A1, “ADMINISTRATION METHOD AND DOSAGE REGIMEN FOR TREATMENT OF NEURODEGENERATIVE DISEASES USING TRAMETINIB AND MARKERS” (GENUV INC., priority 2019, published 2022).
